From patent US20150359789A1, “METHODS FOR TREATING PRURITUS” (TREVI THERAPEUTICS, INC., priority 2014, published 2015) come the findings set out here.

Counter-ions that a name gives are not always drawn.

The data set is described as follows: Oral pharmacokinetics of nalbuphine HCl solution versus tablets, fed and fasted, across studies. The settings on record: human, plasma.

The term Tmax denotes the time from dosing to the highest level. By half-life is commonly meant how long it takes for the measured level to halve. A low value points to rapid decline.

For `Oc1ccc2c3c1O[C@H]1[C@@H](O)CC[C@@]4(O)[C@@H](C2)N(CC2CCC2)CC[C@]314` [nalbuphine, 17-(cyclobutylmethyl)-4,5α-epoxymorphinan-3,6α,14-triol, hydrochloride], the Tmax was in the range of 0.5 to 1 h and the half-life was in the range of 6.87 to 6.99 h.
